From patent US4521340A, “Pharmaceutically acceptable salts of the antibiotic C-19393 E5” (priority 1980, dated 1985)
“Also recorded” adds a separate entry of the source. Counter-ions that a name gives are not always drawn. Like-named read-outs stand apart in the source and are kept apart here.

How the values were obtained:
[1] = tested on: Klebsiella pneumoniae IFO 3317; assay: Antimicrobial spectrum, MIC (Bouillon agar); format: cell-based; conditions: IFO3317, read-out: Minimum Inhibitory Concentration
Description: (§1) The biological properties of C-19393 E5 are as follows.

[2] = tested on: Pseudomonas aeruginosa IFO 3080; assay: Antimicrobial spectrum, MIC (Bouillon agar); format: cell-based; conditions: IFO3080, read-out: Minimum Inhibitory Concentration
Description: as §1

[3] = tested on: Alcaligenes faecalis IFO 13111; assay: Antimicrobial spectrum, MIC (Bouillon agar); format: cell-based; conditions: IFO13111, read-out: Minimum Inhibitory Concentration
Description: as §1

[4] = tested on: Serratia marcescens IFO 12648; assay: Antimicrobial spectrum, MIC (Bouillon agar); format: cell-based; conditions: IFO12648, read-out: Minimum Inhibitory Concentration
Description: as §1

[5] = tested on: Comamonas terrigena IFO 13299; assay: Antimicrobial spectrum, MIC (Bouillon agar); format: cell-based; conditions: IFO13299, read-out: Minimum Inhibitory Concentration
Description: as §1

[6] = tested on: Proteus mirabilis ATCC 21100; assay: Antimicrobial spectrum, MIC (Bouillon agar); format: cell-based; conditions: ATCC21100, read-out: Minimum Inhibitory Concentration
Description: as §1

[7] = tested on: Salmonella typhimurium IFO 12529; assay: Antimicrobial spectrum, MIC (Bouillon agar); format: cell-based; conditions: Salmonella enterica, read-out: Minimum Inhibitory Concentration
Description: as §1

[8] = tested on: Staphylococcus aureus 209P; assay: Antimicrobial spectrum, MIC (Bouillon agar); format: cell-based; conditions: read-out: Minimum Inhibitory Concentration
Description: as §1

[9] = tested on: Proteus vulgaris IFO 3988; assay: Antimicrobial spectrum, MIC (Bouillon agar); format: cell-based; conditions: IFO3988, read-out: Minimum Inhibitory Concentration
Description: as §1

Escherichia coli NIHJ = assay: Antimicrobial spectrum, MIC (Bouillon agar); format: cell-based; conditions: read-out: Minimum Inhibitory Concentration
Description: as §1

Sarcina lutea IFO 3232 = assay: Antimicrobial spectrum, MIC (Bouillon agar); format: cell-based; conditions: Micrococcus luteus, IFO3232, read-out: Minimum Inhibitory Concentration
Description: as §1

[10] = tested on: Bacillus subtilis PCI 219; assay: Antimicrobial spectrum, MIC (Bouillon agar); format: cell-based; conditions: PCI219, read-out: Minimum Inhibitory Concentration
Description: as §1

Solubility = format: physicochemical
[11] = tested on: gram-positive and gram-negative bacteria; assay: Antibacterial activity (summary in words); format: cell-based
Description: as §1

[12] = Stability of aqueous solution; format: physicochemical; conditions: neutral pH region
K-101 strain = assay: Growth on minimal medium containing compound (Table 4); format: cell-based, Streptomyces griseus subsp. cryophilus; conditions: 28° C., 4 days
Protocol: (§2) The 20 plates were selected from among those cultivated with about 20-100 colonies per plate. These colonies were inoculated by the replicate method onto a minimal medium (composition: 10 g of glycerol, 1 g of L-asparagine,1 g of dipotassium phosphate, 0.2 g of magnesium sulfate, 20 g of agar and distilled water; pH 7.1) and a screening medium A (the minimal medium supplemented with 50 mg/l of L-cysteine) and each of the media was incubated at 28° C. for 3 days. Another 20 plates were selected from among those cultivated with about 20-100 colonies per plate. These colonies were replicated on a minimal medium (the same as said composition) and a screening medium B (the minimal medium supplemented with 50 mg/l of sodium thiosulfate) and each of the media was incubated at 28° C. for 3 days. The strains thus obtained were incubated on minimal media containing sodium thiosulfate, L-cysteine or L-methionine in various concentrations at 28° C. for 4 days.

K-4 strain = assay: as above; format: cell-based, Streptomyces griseus subsp. cryophilus; conditions: 28° C., 4 days
Protocol: as §2

C-19393 strain [13] = assay: as above; format: cell-based, Streptomyces griseus subsp. cryophilus; design: key to the marks not given beside the values; conditions: 28° C., 4 days
Protocol: as §2

SR-135 strain [14] = assay: Growth on minimal medium containing compound (Table 5); format: cell-based, Streptomyces griseus subsp. cryophilus; conditions: 28° C., 4 days
Protocol: (§3) SR-135 and C-19393 strains were incubated on a minimal medium containing sodium thiosulfate, L-cysteine or L-methionine at 28° C. for 4 days.

C-19393 strain [15] = assay: as above; format: cell-based, Streptomyces griseus subsp. cryophilus; conditions: 28° C., 4 days
Protocol: as §3

C-19393 strain [16] = assay: microbe, parasite or virus in culture; conditions: Streptomyces griseus, 168 h, read-out: Concentration at which growth was inhibited
SR-135 strain [17] = conditions: 28° C., 7 days
C-19393 strain [18] = conditions: 28° C., 7 days

SMILES	Growth (K-101 strain; 3.125 mg/l)	Growth (K-101 strain; 6.25 mg/l)	Growth (K-101 strain; 12.5 mg/l)	Growth (K-101 strain; 25 mg/l)	Growth (K-101 strain; 50 mg/l)	Growth (K-101 strain; 100 mg/l)	Growth (K-4 strain; 3.125 mg/ml (so in the source))	Growth (K-4 strain; 6.25 mg/ml (so in the source))	Growth (K-4 strain; 12.5 mg/ml (so in the source))	Growth (K-4 strain; 25 mg/ml (so in the source))	Growth (K-4 strain; 50 mg/ml (so in the source))	Growth (K-4 strain; 100 mg/ml (so in the source))	Growth (C-19393 strain [13]; 3.125 mg/ml (so in the source))	Growth (C-19393 strain [13]; 6.25 mg/ml (so in the source))	Growth (C-19393 strain [13]; 12.5 mg/ml (so in the source))	Growth (C-19393 strain [13]; 25 mg/ml (so in the source))	Growth (C-19393 strain [13]; 50 mg/ml (so in the source))	Growth (C-19393 strain [13]; 100 mg/ml (so in the source))	Growth (SR-135 strain [14]; 3.125 mg/l)	Growth (SR-135 strain [14]; 6.25 mg/l)	further results
CC(=O)N/C=C/[S+]([O-])C1=C(C(=O)O)N2C(=O)[C@@H]([C@H](C)O)[C@H]2C1 (stereo partly drawn) [C-19393 E5 sodium salt]																					MIC [1]: 6.25 µg/mL; MIC [2]: 6.25 µg/mL; MIC [3]: 1.56 µg/mL; MIC [4]: 6.25 µg/mL; MIC [5]: 0.78 µg/mL; MIC [6]: 3.13 µg/mL; MIC [7]: 0.78 µg/mL; MIC [8]: 0.78 µg/mL; MIC [9]: 1.56 µg/mL; MIC (Escherichia coli NIHJ): 0.78 µg/mL; MIC (Sarcina lutea IFO 3232): 0.2 µg/mL; MIC [10]: 0.78 µg/mL; Solubility (Solubility; in acetone): insoluble; Solubility (Solubility; in benzene): insoluble; Solubility (Solubility; in ethyl acetate): insoluble; Solubility (Solubility; in water): Readily soluble
CC(=O)N/C=C/[S+]([O-])C1=C(C(=O)O)N2C(=O)[C@@H]([C@H](C)O)[C@H]2C1 (stereo partly drawn) [C-19393 E5]																					Antibacterial/antimicrobial activity [11]: highly active against both gram-positive and gram-negative bacteria; also recorded: strong antimicrobial activity against gram-positive and gram-negative bacteria; Stability of aqueous solution [12]: stable in the neutral pH region
N[C@@H](CS)C(=O)O [L-Cysteine, L-cysteine]	+	++	+++	+++	+++	+++	+	+	++	+++	+++	+++	+++	+++	+++	+++	+++	+++	++	+++	Growth (SR-135 strain [14]; 12.5 mg/l): +++; Growth (SR-135 strain [14]; 25 mg/l): +++; Growth (SR-135 strain [14]; 50 mg/l): +++; Growth (SR-135 strain [14]; 100 mg/l): +++; Growth (C-19393 strain [15]; 3.125 mg/l): +++; Growth (C-19393 strain [15]; 6.25 mg/l): +++; Growth (C-19393 strain [15]; 12.5 mg/l): +++; Growth (C-19393 strain [15]; 25 mg/l): +++; Growth (C-19393 strain [15]; 50 mg/l): +++; Growth (C-19393 strain [15]; 100 mg/l): +++
CSCC[C@H](N)C(=O)O [L-Methionine, L-methionine]	+	++	+++	+++	+++	+++	+	++	++	+++	+++	+++	+++	+++	+++	+++	+++	+++	++	+++	Growth (SR-135 strain [14]; 12.5 mg/l): +++; Growth (SR-135 strain [14]; 25 mg/l): +++; Growth (SR-135 strain [14]; 50 mg/l): +++; Growth (SR-135 strain [14]; 100 mg/l): +++; Growth (C-19393 strain [15]; 3.125 mg/l): +++; Growth (C-19393 strain [15]; 6.25 mg/l): +++; Growth (C-19393 strain [15]; 12.5 mg/l): +++; Growth (C-19393 strain [15]; 25 mg/l): +++; Growth (C-19393 strain [15]; 50 mg/l): ++ +; Growth (C-19393 strain [15]; 100 mg/l): +++
O=[Se](=O)(O)O [Sodium selenate, sodium selenate]																					MIC (C-19393 strain [16]): ≥ 250 µg/mL; Growth (SR-135 strain [17]; 62.5 mg/l): ++; Growth (SR-135 strain [17]; 125 mg/l): ++; Growth (SR-135 strain [17]; 250 mg/l): ++; Growth (SR-135 strain [17]; 500 mg/l): ++; Growth (SR-135 strain [17]; 1000 mg/l): ++; Growth (SR-135 strain [17]; 2000 mg/l): +; Growth (C-19393 strain [18]; 62.5 mg/l): +++; Growth (C-19393 strain [18]; 125 mg/l): ++; Growth (C-19393 strain [18]; 250 mg/l): ±; Growth (C-19393 strain [18]; 1000 mg/l): -; Growth (C-19393 strain [18]; 2000 mg/l): -
O=S([O-])([O-])=S.[Na+].[Na+] [Sodium thiosulfate, sodium thiosulfate]	±	±	±	+	++	+++	+	+	++	+++	+++	+++	+++	+++	+++	+++	+++	+++	+	++	Growth (SR-135 strain [14]; 12.5 mg/l): ++; Growth (SR-135 strain [14]; 25 mg/l): +++; Growth (SR-135 strain [14]; 50 mg/l): +++; Growth (SR-135 strain [14]; 100 mg/l): +++; Growth (C-19393 strain [15]; 3.125 mg/l): +++; Growth (C-19393 strain [15]; 6.25 mg/l): +++; Growth (C-19393 strain [15]; 12.5 mg/l): +++; Growth (C-19393 strain [15]; 25 mg/l): +++; Growth (C-19393 strain [15]; 50 mg/l): +++; Growth (C-19393 strain [15]; 100 mg/l): +++
